{
  "source": "ChEMBL document CHEMBL6153147",
  "about": "(J Med Chem, 2025)",
  "key": {"Cytochrome P450 2C8": {"molecular_target": "Cytochrome P450 2C8 (Homo sapiens, UniProt P10632)", "sequence (P10632 whole entry)": "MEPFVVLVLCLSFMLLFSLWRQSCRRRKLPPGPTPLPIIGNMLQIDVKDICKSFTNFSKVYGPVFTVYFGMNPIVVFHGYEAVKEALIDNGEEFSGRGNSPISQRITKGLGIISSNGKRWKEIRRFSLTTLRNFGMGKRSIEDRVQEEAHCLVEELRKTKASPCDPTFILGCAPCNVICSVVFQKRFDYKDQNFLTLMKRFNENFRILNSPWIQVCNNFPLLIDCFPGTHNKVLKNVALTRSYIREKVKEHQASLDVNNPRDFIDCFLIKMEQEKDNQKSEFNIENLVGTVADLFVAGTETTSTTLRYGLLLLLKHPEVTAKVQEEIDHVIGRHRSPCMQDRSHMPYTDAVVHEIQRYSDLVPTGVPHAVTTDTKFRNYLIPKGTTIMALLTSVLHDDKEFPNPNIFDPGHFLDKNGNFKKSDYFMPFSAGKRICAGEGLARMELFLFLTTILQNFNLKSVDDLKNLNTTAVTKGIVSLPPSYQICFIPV", "assay": "Inhibition of CYP2C8 in human liver microsomes using paclitaxel as substrate preincubated with compound followed by substrate addition measured after 10 mins in presence of NADPH by LC-MS/MS analysis", "format": "ADME, Microsome"}, "[1]": {"assay": "Toxicity in BALB/c mouse xenografted with human K562 cells assessed as change in body weight at 10 to 20 mg/kg, IG for 11 days treated on every 3 to 4 days", "format": "organism-based", "conditions": "in vivo, po, 264 h, dose 10-20 mg/kg, time 11 day"}, "Cytochrome P450 2B6": {"molecular_target": "Cytochrome P450 2B6 (Homo sapiens, UniProt P20813)", "sequence (P20813 whole entry)": "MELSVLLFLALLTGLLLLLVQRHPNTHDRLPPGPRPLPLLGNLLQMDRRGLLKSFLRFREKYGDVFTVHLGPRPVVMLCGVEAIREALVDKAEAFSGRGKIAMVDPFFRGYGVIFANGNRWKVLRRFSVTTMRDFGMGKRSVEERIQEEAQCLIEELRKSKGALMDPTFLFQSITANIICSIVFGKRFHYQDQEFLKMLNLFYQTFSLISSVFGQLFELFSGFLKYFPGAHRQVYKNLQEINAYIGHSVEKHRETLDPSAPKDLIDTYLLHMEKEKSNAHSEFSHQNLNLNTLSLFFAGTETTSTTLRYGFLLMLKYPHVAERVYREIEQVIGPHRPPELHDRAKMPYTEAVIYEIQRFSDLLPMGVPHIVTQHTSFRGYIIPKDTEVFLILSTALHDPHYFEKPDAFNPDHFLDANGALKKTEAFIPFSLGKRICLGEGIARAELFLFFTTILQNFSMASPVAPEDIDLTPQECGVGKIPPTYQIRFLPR", "assay": "Inhibition of CYP2B6 in human liver microsomes using bupropion as substrate preincubated with compound followed by substrate addition measured after 10 mins in presence of NADPH by LC-MS/MS analysis", "format": "ADME, Microsome"}, "Homo sapiens": {"species_on_record": "Homo sapiens", "assay": "Inhibition of human HRI assessed as residual activity at 10 uM by kinome selectivity profiling analysis relative to control"}, "[2]": {"molecular_target": "Serine/threonine-protein kinase PLK3 (Homo sapiens, UniProt Q9H4B4)", "assay": "Inhibition of human PLK3 assessed as residual activity at 10 uM by kinome selectivity profiling analysis relative to control"}, "Cytochrome P450 1A2": {"molecular_target": "Cytochrome P450 1A2 (Homo sapiens, UniProt P05177)", "assay": "Inhibition of CYP1A2 in human liver microsomes using phenacetin as substrate preincubated with compound followed by substrate addition measured after 10 mins in presence of NADPH by LC-MS/MS analysis", "format": "ADME, Microsome"}, "[3]": {"molecular_target": "Epidermal growth factor receptor (Homo sapiens) (UniProt P00533)", "sequence (P00533 whole entry)": "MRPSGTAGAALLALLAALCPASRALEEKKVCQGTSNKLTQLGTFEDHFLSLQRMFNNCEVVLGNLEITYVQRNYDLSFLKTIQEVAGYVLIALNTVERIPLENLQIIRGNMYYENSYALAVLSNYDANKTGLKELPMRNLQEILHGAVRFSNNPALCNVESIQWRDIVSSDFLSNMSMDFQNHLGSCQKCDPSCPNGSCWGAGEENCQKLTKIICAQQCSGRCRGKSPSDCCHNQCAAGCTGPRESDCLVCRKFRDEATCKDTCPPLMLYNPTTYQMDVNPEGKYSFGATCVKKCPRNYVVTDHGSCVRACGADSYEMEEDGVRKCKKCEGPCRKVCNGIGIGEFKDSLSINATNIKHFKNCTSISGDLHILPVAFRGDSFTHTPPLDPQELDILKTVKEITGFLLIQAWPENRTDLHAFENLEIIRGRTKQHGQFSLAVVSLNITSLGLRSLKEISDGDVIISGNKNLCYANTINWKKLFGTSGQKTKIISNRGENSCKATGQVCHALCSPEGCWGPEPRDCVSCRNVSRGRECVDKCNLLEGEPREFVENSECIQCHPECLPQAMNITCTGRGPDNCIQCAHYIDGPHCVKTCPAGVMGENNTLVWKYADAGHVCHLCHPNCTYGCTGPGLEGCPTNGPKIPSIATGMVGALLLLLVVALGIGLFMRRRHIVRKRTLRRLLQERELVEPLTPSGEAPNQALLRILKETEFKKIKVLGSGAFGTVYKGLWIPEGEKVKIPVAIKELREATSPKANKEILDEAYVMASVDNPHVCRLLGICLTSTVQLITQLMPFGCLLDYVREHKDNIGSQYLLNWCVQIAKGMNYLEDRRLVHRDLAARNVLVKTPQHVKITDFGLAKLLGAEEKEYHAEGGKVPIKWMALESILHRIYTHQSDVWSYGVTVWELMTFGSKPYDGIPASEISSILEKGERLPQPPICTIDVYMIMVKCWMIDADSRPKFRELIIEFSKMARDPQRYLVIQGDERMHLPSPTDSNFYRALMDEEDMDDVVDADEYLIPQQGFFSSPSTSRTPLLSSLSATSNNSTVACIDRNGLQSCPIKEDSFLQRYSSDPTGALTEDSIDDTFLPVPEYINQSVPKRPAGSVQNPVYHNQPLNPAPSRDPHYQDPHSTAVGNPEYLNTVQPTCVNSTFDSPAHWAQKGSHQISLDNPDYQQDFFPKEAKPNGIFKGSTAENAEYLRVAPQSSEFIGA", "assay": "Inhibition of human EGFR assessed as residual activity at 10 uM by kinome selectivity profiling analysis relative to control"}, "[4]": {"assay": "MRT (0 to t) in C57BL/6 mouse at 1 mg/kg, iv measured for 0.5 to 12 htr by LC-MS/MS analysis", "format": "ADME, organism-based", "conditions": "in vivo, time 0.5-12 hrs"}, "[5]": {"molecular_target": "Voltage-gated inwardly rectifying potassium channel KCNH2 (Homo sapiens, UniProt Q12809)", "assay": "Inhibition of hERG transfected in CHO cells", "format": "toxicity, cell-based"}, "Cytochrome P450 2C9": {"molecular_target": "Cytochrome P450 2C9 (Homo sapiens, UniProt P11712)", "assay": "Inhibition of CYP2C9 in human liver microsomes using diclofenac as substrate preincubated with compound followed by substrate addition measured after 10 mins in presence of NADPH by LC-MS/MS analysis", "format": "ADME, Microsome"}, "[6]": {"molecular_target": "Serine/threonine-protein kinase MRCK alpha (Homo sapiens) (UniProt Q5VT25)", "assay": "Inhibition of human MRCK-alpha assessed as residual activity at 10 uM by kinome selectivity profiling analysis relative to control"}, "[7]": {"assay": "Acute hematopoietic toxicity in mouse assessed as effect on platelets at 500 mg/kg, IG qd treated for 7 days", "format": "organism-based", "conditions": "in vivo, po, 168 h, time 7 day"}, "[8]": {"assay": "Metabolic stability in dog liver microsomes assessed as half life preincubated for 5 mins followed by NADPH addition by LC-MS/MS analysis", "format": "ADME, Canis lupus familiaris, Microsome"}, "[9]": {"assay": "Acute hematopoietic toxicity in mouse assessed as effect on biochemical indices at 500 mg/kg, IG qd treated for 7 days", "format": "organism-based", "conditions": "in vivo, po, 168 h, time 7 day"}, "[10]": {"assay": "Clearance in C57BL/6 mouse at 1 mg/kg, iv measured for 0.5 to […] htr by LC-MS/MS analysis", "format": "ADME, organism-based", "conditions": "in vivo, time 0.5-12 hrs"}, "[11]": {"assay": "Stability of compound in rat hepatocytes", "format": "ADME, cell-based, Hepatocyte"}, "[12]": {"assay": "Acute hematopoietic toxicity in mouse assessed as effect on red blood cells at 500 mg/kg, IG qd treated for 7 days", "format": "organism-based", "conditions": "in vivo, po, 168 h, time 7 day"}, "[13]": {"molecular_target": "Myosin-IIIb (Homo sapiens) (UniProt Q8WXR4)", "assay": "Inhibition of human MYO3B assessed as residual activity at 10 uM by kinome selectivity profiling analysis relative to control"}, "K562": {"test_system": "K562", "assay": "Antitumor activity against human K562 cells xenografted in BALB/c mouse assessed as suppression of tumor growth administered intragastrically for 11 days treated on every 3 to 4 days", "format": "functional, cell-based", "conditions": "dose 10-20 mg/kg, route ig, time 11.0 day"}, "[14]": {"molecular_target": "Calcium/calmodulin-dependent protein kinase kinase 2 (Homo sapiens) (UniProt Q96RR4)", "assay": "Inhibition of human CaMKK2 assessed as residual activity at 10 uM by kinome selectivity profiling analysis relative to control"}, "[15]": {"assay": "Metabolic stability in mouse liver microsomes assessed as intrinsic clearance in microsome measured per mg protein preincubated for 5 mins followed by NADPH addition by LC-MS/MS analysis", "format": "ADME", "conditions": "read-out: CLH"}, "[16]": {"assay": "AUC (0 to t) in C57BL/6 mouse at 1 mg/kg, iv measured for 0.5 to […] htr by LC-MS/MS analysis", "format": "ADME, organism-based", "conditions": "in vivo, time 0.5-12 hrs"}, "[17]": {"assay": "Metabolic stability in human liver microsomes assessed as half life preincubated for 5 mins followed by NADPH addition by LC-MS/MS analysis", "format": "ADME, Microsome"}, "[18]": {"molecular_target": "Serine/threonine-protein kinase PLK4 (Homo sapiens) (UniProt O00444)", "assay": "Inhibition of human PLK4 assessed as residual activity at 10 uM by kinome selectivity profiling analysis relative to control"}, "[19]": {"molecular_target": "Dual specificity protein kinase CLK2 (Homo sapiens) (UniProt P49760)", "sequence (P49760 whole entry, looked up)": "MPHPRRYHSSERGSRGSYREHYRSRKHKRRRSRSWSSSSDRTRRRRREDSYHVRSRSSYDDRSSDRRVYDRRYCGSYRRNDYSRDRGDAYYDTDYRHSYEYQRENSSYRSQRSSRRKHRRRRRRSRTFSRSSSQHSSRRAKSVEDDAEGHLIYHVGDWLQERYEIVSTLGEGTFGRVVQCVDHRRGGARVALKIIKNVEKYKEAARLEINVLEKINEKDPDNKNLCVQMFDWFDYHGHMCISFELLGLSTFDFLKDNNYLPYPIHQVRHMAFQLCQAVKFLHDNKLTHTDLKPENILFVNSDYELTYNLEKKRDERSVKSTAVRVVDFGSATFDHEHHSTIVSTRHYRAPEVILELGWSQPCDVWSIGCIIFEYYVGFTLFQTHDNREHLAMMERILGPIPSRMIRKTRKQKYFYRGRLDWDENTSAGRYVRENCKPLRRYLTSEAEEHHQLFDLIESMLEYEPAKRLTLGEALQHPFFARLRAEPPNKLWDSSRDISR", "assay": "Inhibition of human CLK2 assessed as residual activity at 10 uM by kinome selectivity profiling analysis relative to control"}, "[20]": {"assay": "Acute toxicity in mouse assessed as effect on behaviour at 500 mg/kg, IG qd treated for 7 days", "format": "organism-based", "conditions": "in vivo, po, 168 h, time 7 day"}, "[21]": {"molecular_target": "Glycogen synthase kinase-3 beta (Homo sapiens) (UniProt P49841)", "sequence (P49841 whole entry, looked up)": "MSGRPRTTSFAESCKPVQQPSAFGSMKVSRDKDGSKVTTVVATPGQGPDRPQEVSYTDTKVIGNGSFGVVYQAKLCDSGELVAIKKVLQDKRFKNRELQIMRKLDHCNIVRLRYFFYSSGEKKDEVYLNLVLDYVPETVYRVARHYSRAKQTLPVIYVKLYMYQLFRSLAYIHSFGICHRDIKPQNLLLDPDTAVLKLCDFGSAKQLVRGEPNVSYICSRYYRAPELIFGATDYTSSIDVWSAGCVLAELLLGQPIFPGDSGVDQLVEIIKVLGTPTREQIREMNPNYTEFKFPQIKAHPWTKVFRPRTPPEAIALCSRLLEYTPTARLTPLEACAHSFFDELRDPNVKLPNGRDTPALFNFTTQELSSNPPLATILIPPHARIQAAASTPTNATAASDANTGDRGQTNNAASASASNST", "assay": "Inhibition of human GSK-3beta assessed as residual activity at 10 uM by kinome selectivity profiling analysis relative to control"}, "[22]": {"assay": "Tmax in C57BL/6 mouse at 1 mg/kg, iv measured for 0.5 to 12 htr by LC-MS/MS analysis", "format": "ADME, organism-based", "conditions": "in vivo, time 0.5-12 hrs"}, "[23]": {"molecular_target": "TRAF2 and NCK-interacting protein kinase (Homo sapiens) (UniProt Q9UKE5)", "sequence (Q9UKE5 whole entry, looked up)": "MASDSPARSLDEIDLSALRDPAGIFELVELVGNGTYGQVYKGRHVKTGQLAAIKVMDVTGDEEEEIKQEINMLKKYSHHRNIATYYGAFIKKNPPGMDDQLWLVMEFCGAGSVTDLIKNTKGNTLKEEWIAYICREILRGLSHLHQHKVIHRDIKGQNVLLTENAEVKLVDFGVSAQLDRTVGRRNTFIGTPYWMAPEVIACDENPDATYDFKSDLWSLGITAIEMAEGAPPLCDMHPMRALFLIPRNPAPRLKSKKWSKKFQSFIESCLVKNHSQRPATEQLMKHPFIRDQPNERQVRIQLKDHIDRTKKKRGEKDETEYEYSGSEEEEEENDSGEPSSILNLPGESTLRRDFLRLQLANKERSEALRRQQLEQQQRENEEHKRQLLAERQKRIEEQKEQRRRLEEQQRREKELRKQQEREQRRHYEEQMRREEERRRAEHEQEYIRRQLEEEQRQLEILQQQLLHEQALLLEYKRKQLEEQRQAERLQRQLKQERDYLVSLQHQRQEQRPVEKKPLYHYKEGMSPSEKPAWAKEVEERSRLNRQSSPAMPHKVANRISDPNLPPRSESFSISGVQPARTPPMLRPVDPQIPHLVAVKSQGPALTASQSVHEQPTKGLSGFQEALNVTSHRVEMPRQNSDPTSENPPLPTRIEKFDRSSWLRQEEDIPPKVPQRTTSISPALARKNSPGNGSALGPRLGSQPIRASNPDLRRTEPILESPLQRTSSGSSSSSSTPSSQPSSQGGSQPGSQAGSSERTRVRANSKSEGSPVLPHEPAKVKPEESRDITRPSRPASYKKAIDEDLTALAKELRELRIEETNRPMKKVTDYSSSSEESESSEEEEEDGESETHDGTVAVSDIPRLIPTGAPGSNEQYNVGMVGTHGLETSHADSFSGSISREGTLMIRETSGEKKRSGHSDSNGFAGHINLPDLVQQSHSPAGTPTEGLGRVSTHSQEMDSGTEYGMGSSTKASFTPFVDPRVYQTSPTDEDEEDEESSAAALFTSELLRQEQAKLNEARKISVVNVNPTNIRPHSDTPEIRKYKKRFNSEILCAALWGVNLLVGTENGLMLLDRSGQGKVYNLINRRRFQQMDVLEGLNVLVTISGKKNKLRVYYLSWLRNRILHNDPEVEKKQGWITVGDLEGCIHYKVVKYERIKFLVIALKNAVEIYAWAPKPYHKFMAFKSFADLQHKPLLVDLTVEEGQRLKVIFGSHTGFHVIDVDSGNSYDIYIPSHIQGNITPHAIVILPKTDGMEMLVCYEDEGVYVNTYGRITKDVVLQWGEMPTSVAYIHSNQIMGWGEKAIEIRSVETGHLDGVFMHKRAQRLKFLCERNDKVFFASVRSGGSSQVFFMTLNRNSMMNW", "assay": "Inhibition of human TNIK assessed as residual activity at 10 uM by kinome selectivity profiling analysis relative to control"}, "[24]": {"assay": "Metabolic stability in mouse liver microsomes assessed as intrinsic clearance preincubated for 5 mins followed by NADPH addition by LC-MS/MS analysis", "format": "ADME, Microsome", "conditions": "read-out: CLH"}, "[25]": {"assay": "Effect on F-actin cytoskeleton in HEK293T cells at 10 uM incubated for 24 hrs by immunofluorescence based analysis", "format": "toxicity, cell-based", "conditions": "human, hek-293t"}, "KG-1": {"test_system": "KG-1", "assay": "cells", "conditions": "Homo sapiens"}, "[26]": {"molecular_target": "Eukaryotic translation initiation factor 2-alpha kinase 3 (Homo sapiens) (UniProt Q9NZJ5)", "assay": "Inhibition of human PEK assessed as residual activity at 10 uM by kinome selectivity profiling analysis relative to control"}, "[27]": {"assay": "AUC (0 to infinity) in C57BL/6 mouse at 1 mg/kg, iv measured for 0.5 to 12 htr by LC-MS/MS analysis", "format": "ADME, organism-based", "conditions": "in vivo, time 0.5-12 hrs"}, "HEK-293T": {"test_system": "HEK-293T", "assay": "Effect on mitochondrial membrane potential in HEK293T cells at 10 uM incubated for 24 hrs by MitoTracker Red probe based analysis", "format": "toxicity, cell-based", "conditions": "human"}, "[28]": {"assay": "Acute hematopoietic toxicity in mouse assessed as effect on white blood cells at 500 mg/kg, IG qd treated for 7 days", "format": "organism-based", "conditions": "in vivo, po, 168 h, time 7 day"}, "[29]": {"molecular_target": "Aurora kinase A (Homo sapiens) (UniProt O14965)", "sequence (O14965 whole entry)": "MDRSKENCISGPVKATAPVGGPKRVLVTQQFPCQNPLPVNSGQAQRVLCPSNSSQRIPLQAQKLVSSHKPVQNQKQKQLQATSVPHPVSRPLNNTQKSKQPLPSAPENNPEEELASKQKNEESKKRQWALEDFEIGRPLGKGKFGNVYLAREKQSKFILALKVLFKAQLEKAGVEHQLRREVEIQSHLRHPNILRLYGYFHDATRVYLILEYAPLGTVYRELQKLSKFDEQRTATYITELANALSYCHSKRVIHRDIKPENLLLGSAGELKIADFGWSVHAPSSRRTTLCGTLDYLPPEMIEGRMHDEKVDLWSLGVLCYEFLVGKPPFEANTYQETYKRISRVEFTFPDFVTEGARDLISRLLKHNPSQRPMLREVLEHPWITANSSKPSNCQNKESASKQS", "assay": "Inhibition of human Aurora-A assessed as residual activity at 10 uM by kinome selectivity profiling analysis relative to control"}},
  "data": [
    {"smiles": "CC[C@@H]1C(=O)N(C)c2cnc(Nc3cc(N4CCN(C)CC4)cc(Cl)c3OCCCO)nc2N1C1CCCC1", "values": [
      {"measurement": "IC50", "setting": "Cytochrome P450 2C8", "result": "> 10", "unit": "µM"},
      {"measurement": "Activity", "setting": "[1]", "result": "Non-toxic"},
      {"measurement": "IC50", "setting": "Cytochrome P450 2B6", "result": "> 10", "unit": "µM"},
      {"measurement": "Activity", "setting": "Homo sapiens", "result": 54, "unit": "%"},
      {"measurement": "Activity", "setting": "[2]", "result": 11, "unit": "%"},
      {"measurement": "IC50", "setting": "Cytochrome P450 1A2", "result": "> 10", "unit": "µM"},
      {"measurement": "Activity", "setting": "[3]", "result": 107, "unit": "%"},
      {"measurement": "MRT last", "setting": "[4]", "result": 39.6, "unit": "min"},
      {"measurement": "IC50", "setting": "[5]", "result": 44.2, "unit": "µM"},
      {"measurement": "IC50", "setting": "Cytochrome P450 2C9", "result": 9.6, "unit": "µM"},
      {"measurement": "Activity", "setting": "[6]", "result": 129, "unit": "%"},
      {"measurement": "Activity", "setting": "[7]", "result": "Non-toxic"},
      {"measurement": "half-life", "setting": "[8]", "result": 17.3, "unit": "min"},
      {"measurement": "Activity", "setting": "[9]", "result": "Non-toxic"},
      {"measurement": "clearance", "setting": "[10]", "result": 91, "unit": "mL/min/kg"},
      {"measurement": "Stability", "setting": "[11]", "result": "Stable"},
      {"measurement": "Activity", "setting": "[12]", "result": "Non-toxic"},
      {"measurement": "Activity", "setting": "[13]", "result": 44, "unit": "%"},
      {"measurement": "Activity", "setting": "K562", "result": "Dose-dependent-effect; Demonstrated Comparable Or Remarkably Improved Therapeutic Efficacy Compared To Bi 2536 At 10 Mg/Kg (I.P.)"},
      {"measurement": "Activity", "setting": "[14]", "result": 73, "unit": "%"},
      {"measurement": "microsomal CLint", "setting": "[15]", "result": 210, "unit": "µL/min/mg"},
      {"measurement": "AUC(0-t)", "setting": "[16]", "result": 181, "unit": "ng·h/mL"},
      {"measurement": "half-life", "setting": "[17]", "result": 30.3, "unit": "min"},
      {"measurement": "Activity", "setting": "[18]", "result": 104, "unit": "%"},
      {"measurement": "Activity", "setting": "[19]", "result": 70, "unit": "%"},
      {"measurement": "Activity", "setting": "[20]", "result": "Non-toxic"},
      {"measurement": "Activity", "setting": "[21]", "result": 112, "unit": "%"},
      {"measurement": "Tmax", "setting": "[22]", "result": 4.98, "unit": "min"},
      {"measurement": "Activity", "setting": "[23]", "result": 77, "unit": "%"},
      {"measurement": "CLint scaled", "setting": "[24]", "result": 829, "unit": "mL/min/kg"},
      {"measurement": "Activity", "setting": "[25]", "result": "Non-toxic"},
      {"measurement": "IC50", "setting": "KG-1", "result": "> 10", "unit": "µM"},
      {"measurement": "Activity", "setting": "[26]", "result": 80, "unit": "%"},
      {"measurement": "AUC(0-inf)", "setting": "[27]", "result": 183, "unit": "ng·h/mL"},
      {"measurement": "Activity", "setting": "HEK-293T", "result": "Non-toxic"},
      {"measurement": "Activity", "setting": "[28]", "result": "Non-toxic"},
      {"measurement": "Activity", "setting": "[29]", "result": 110, "unit": "%"}
    ]}
  ]
}
